Measurements taken from PubChem BioAssay (NCI).
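The compound was tested at five concentrations on cells cultured in 96-well plates, with a 48-hour exposure period. TGI denotes the concentration required for complete inhibition of growth.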

Columns and labels:
Assay in all cases: DTP human tumour cell line panel, 48 h
NCI-H226 lung = tested on: NCI-H226 lung
UO-31 renal = tested on: UO-31 renal
OVCAR-8 ovarian = tested on: OVCAR-8 ovarian
TK-10 renal = tested on: TK-10 renal
COLO 205 colon = tested on: COLO 205 colon
RXF 393 renal = tested on: RXF 393 renal
NCI-H460 lung = tested on: NCI-H460 lung
M19-MEL melanoma = tested on: M19-MEL melanoma
SNB-75 CNS = tested on: SNB-75 CNS
SK-OV-3 ovarian = tested on: SK-OV-3 ovarian
U251 CNS = tested on: U251 CNS
CAKI-1 renal = tested on: CAKI-1 renal
IGROV1 ovarian = tested on: IGROV1 ovarian
CCRF-CEM leukemia = tested on: CCRF-CEM leukemia
HCT-15 colon = tested on: HCT-15 colon
HOP-62 NSCLC = tested on: HOP-62 NSCLC
XF 498 CNS = tested on: XF 498 CNS
SF-295 CNS = tested on: SF-295 CNS
SW-620 colon = tested on: SW-620 colon
OVCAR-5 ovarian = tested on: OVCAR-5 ovarian
K-562 leukemia = tested on: K-562 leukemia
KM20L2 colon = tested on: KM20L2 colon
SK-MEL-28 melanoma = tested on: SK-MEL-28 melanoma
SF-268 CNS = tested on: SF-268 CNS
ACHN renal = tested on: ACHN renal
786-0 renal = tested on: 786-0 renal
NCI-H522 lung = tested on: NCI-H522 lung
A498 renal = tested on: A498 renal
HOP-92 NSCLC = tested on: HOP-92 NSCLC
HCT-116 colon = tested on: HCT-116 colon
SNB-19 CNS = tested on: SNB-19 CNS
EKVX NSCLC = tested on: EKVX NSCLC
DLD-1 colon = tested on: DLD-1 colon
SK-MEL-5 melanoma = tested on: SK-MEL-5 melanoma
OVCAR-4 ovarian = tested on: OVCAR-4 ovarian
HOP-18 NSCLC = tested on: HOP-18 NSCLC
RXF-631 renal = tested on: RXF-631 renal
SR leukemia = tested on: SR leukemia
UACC-257 melanoma = tested on: UACC-257 melanoma
LXFL 529 NSCLC = tested on: LXFL 529 NSCLC
RPMI-8226 leukemia = tested on: RPMI-8226 leukemia
LOX IMVI melanoma = tested on: LOX IMVI melanoma
A549 NSCLC = tested on: A549 NSCLC
KM12 colon = tested on: KM12 colon
SNB-78 CNS = tested on: SNB-78 CNS
SN12C renal = tested on: SN12C renal
HT29 colon = tested on: HT29 colon
DMS 114 small cell lung = tested on: DMS 114 small cell lung
HCC-2998 colon = tested on: HCC-2998 colon
OVCAR-3 ovarian = tested on: OVCAR-3 ovarian
SK-MEL-2 melanoma = tested on: SK-MEL-2 melanoma
MALME-3M melanoma = tested on: MALME-3M melanoma
SF-539 CNS = tested on: SF-539 CNS
M14 melanoma = tested on: M14 melanoma
NCI-H23 lung = tested on: NCI-H23 lung
DMS 273 small cell lung = tested on: DMS 273 small cell lung
MOLT-4 leukemia = tested on: MOLT-4 leukemia
HL-60(TB) leukemia = tested on: HL-60(TB) leukemia
UACC-62 melanoma = tested on: UACC-62 melanoma

CCC1(OC(C)=O)C(=O)OCc2c1cc1n(c2=O)Cc2cc3ccccc3nc2-1 (configuration not stated)
TGI (NCI-H226 lung): 4.55 µM | TGI (UO-31 renal): 8.19 µM | TGI (OVCAR-8 ovarian): > 100 µM | TGI (TK-10 renal): > 100 µM | TGI (COLO 205 colon): > 100 µM | TGI (RXF 393 renal): > 22.6 µM | TGI (NCI-H460 lung): 7.15 µM | TGI (M19-MEL melanoma): > 100 µM | TGI (SNB-75 CNS): > 44.6 µM | TGI (SK-OV-3 ovarian): > 69.6 µM | TGI (U251 CNS): 2.64 µM | TGI (CAKI-1 renal): 36 µM | TGI (IGROV1 ovarian): > 100 µM | TGI (CCRF-CEM leukemia): 1.93 µM | TGI (HCT-15 colon): > 100 µM | TGI (HOP-62 NSCLC): 9.81 µM | TGI (XF 498 CNS): > 100 µM | TGI (SF-295 CNS): > 100 µM | TGI (SW-620 colon): > 100 µM | TGI (OVCAR-5 ovarian): 28.9 µM | TGI (K-562 leukemia): > 100 µM | TGI (KM20L2 colon): > 100 µM | TGI (SK-MEL-28 melanoma): > 100 µM | TGI (SF-268 CNS): > 100 µM | TGI (ACHN renal): 12.1 µM | TGI (786-0 renal): > 31.1 µM | TGI (NCI-H522 lung): 15.2 µM | TGI (A498 renal): 25.5 µM | TGI (HOP-92 NSCLC): > 100 µM | TGI (HCT-116 colon): > 37.5 µM | TGI (SNB-19 CNS): > 100 µM | TGI (EKVX NSCLC): > 100 µM | TGI (DLD-1 colon): > 100 µM | TGI (SK-MEL-5 melanoma): 4 µM | TGI (OVCAR-4 ovarian): > 100 µM | TGI (HOP-18 NSCLC): > 100 µM | TGI (RXF-631 renal): > 100 µM | TGI (SR leukemia): 11.9 µM | TGI (UACC-257 melanoma): > 100 µM | TGI (LXFL 529 NSCLC): > 100 µM | TGI (RPMI-8226 leukemia): > 100 µM | TGI (LOX IMVI melanoma): 13.5 µM | TGI (A549 NSCLC): > 100 µM | TGI (KM12 colon): > 100 µM | TGI (SNB-78 CNS): > 100 µM | TGI (SN12C renal): > 91.9 µM | TGI (HT29 colon): > 100 µM | TGI (DMS 114 small cell lung): 11.9 µM | TGI (HCC-2998 colon): > 100 µM | TGI (OVCAR-3 ovarian): > 100 µM | TGI (SK-MEL-2 melanoma): > 100 µM | TGI (MALME-3M melanoma): > 100 µM | TGI (SF-539 CNS): 5.23 µM | TGI (M14 melanoma): > 33 µM | TGI (NCI-H23 lung): 4.6 µM

COc1ccccc1/C=C\c1cc(OC)c(OC)c(OC)c1
TGI (NCI-H226 lung): 96.2 µM | TGI (UO-31 renal): 60.4 µM | TGI (OVCAR-8 ovarian): > 100 µM | TGI (TK-10 renal): > 100 µM | TGI (COLO 205 colon): 16.9 µM | TGI (RXF 393 renal): 36.6 µM | TGI (NCI-H460 lung): > 100 µM | TGI (M19-MEL melanoma): > 100 µM | TGI (SNB-75 CNS): 72.6 µM | TGI (U251 CNS): > 100 µM | TGI (CAKI-1 renal): > 100 µM | TGI (IGROV1 ovarian): > 100 µM | TGI (CCRF-CEM leukemia): > 100 µM | TGI (HCT-15 colon): > 100 µM | TGI (HOP-62 NSCLC): > 100 µM | TGI (XF 498 CNS): 48 µM | TGI (SF-295 CNS): > 100 µM | TGI (SW-620 colon): > 100 µM | TGI (OVCAR-5 ovarian): 89.4 µM | TGI (K-562 leukemia): > 100 µM | TGI (SK-MEL-28 melanoma): > 100 µM | TGI (ACHN renal): > 100 µM | TGI (DMS 273 small cell lung): > 100 µM | TGI (786-0 renal): > 100 µM | TGI (NCI-H522 lung): 45.5 µM | TGI (A498 renal): 54.7 µM | TGI (HOP-92 NSCLC): 81.6 µM | TGI (HCT-116 colon): > 100 µM | TGI (SNB-19 CNS): > 100 µM | TGI (EKVX NSCLC): > 100 µM | TGI (DLD-1 colon): > 100 µM | TGI (MOLT-4 leukemia): 98.6 µM | TGI (SK-MEL-5 melanoma): 13.5 µM | TGI (OVCAR-4 ovarian): > 100 µM | TGI (HOP-18 NSCLC): > 100 µM | TGI (RXF-631 renal): > 100 µM | TGI (HL-60(TB) leukemia): 20.1 µM | TGI (UACC-257 melanoma): > 100 µM | TGI (LXFL 529 NSCLC): > 100 µM | TGI (RPMI-8226 leukemia): 43.7 µM | TGI (LOX IMVI melanoma): > 100 µM | TGI (A549 NSCLC): > 100 µM | TGI (KM12 colon): > 100 µM | TGI (SNB-78 CNS): > 100 µM | TGI (SN12C renal): > 100 µM | TGI (HT29 colon): > 100 µM | TGI (DMS 114 small cell lung): > 100 µM | TGI (OVCAR-3 ovarian): 55.6 µM | TGI (MALME-3M melanoma): > 100 µM | TGI (SF-539 CNS): 46.4 µM | TGI (M14 melanoma): > 100 µM | TGI (UACC-62 melanoma): > 100 µM
